According to paper PMC5849406 (Pharmacological research, 2017):
“And” between values parts separate entries of the source, which are not always exact repeats. Identical values can stand only once. Like-named read-outs stand apart in the source and are kept apart here. Marks after values point to notes of the source that are not given here.

Key:
hCB1Rs [1] = assay: Biased hCB1R signaling: ΔΔlog; parameters: species or system human; conditions: CHO-β2-hCB1, reference CP-55,940; for GTPγS / β-Arrestin 2 (Operational) Bias Factor: 10^ΔΔlog(τ/KA); for AC / β-Arrestin 2 (Competitive) ΔΔLog(τ/KA) / AC / β-Arrestin 2 (Operational) ΔΔLog(τ/KA) / GTPγS / β-Arrestin 2 (Competitive) ΔΔLog(τ/KA) / GTPγS / β-Arrestin 2 (Operational) ΔΔLog(τ/KA): 95% confidence interval in parentheses
hCB1Rs [2] = biological target: T1, hCB1Rs (Homo sapiens, UniProt P21554); format: binding; conditions: 0.2 nM [^3H]-CP55,940; for ^3H-CP-55,940 Binding pKi: mean ± S.E.M.; for Ki: read-out: ^3H-CP-55,940 Binding Ki
hCB1Rs [3] = biological target: T1, hCB1Rs; assay: [^35S]GTPγS binding; format: biochemical; conditions: for ^35S-GTPγS Binding Assay ΔLog(τ/KA): CHO-β2-hCB1, normalized to reference CP-55,940, 95% CI printed in the cell; for ^35S-GTPγS Binding Assay EMAX: fraction of the effect produced by the reference agonist CP-55,940; for EC50: read-out: ^35S-GTPγS Binding Assay EC50
hCB1Rs [4] = biological target: T1, hCB1Rs; assay: Forskolin-stimulated intracellular cAMP levels; format: cell-based; conditions: for cAMP Assay Log(τ/KA): Black-Leff operational model; for cAMP Assay pIC50 / cAMP Assay IMAX / IC50: intact CHO-β2-hCB1 cells; for cAMP Assay pIC50 / IC50: 10 µM forskolin; for cAMP Assay IMAX: fraction of the effect produced by the reference agonist CP-55,940; for IC50: read-out: cAMP Assay IC50
hCB1Rs [5] = biological target: T1, hCB1Rs; format: cell-based; conditions: for β-Arrestin 2 Assay (Operational) ΔLog(τ/KA): normalized to reference CP-55,940; for β-Arrestin 2 Assay (Operational) Log(τ/KA): operational model; for β-Arrestin 2 Assay EMAX / β-Arrestin 2 Assay pEC50 / EC50: CHO-β2-hCB1 cells; for β-Arrestin 2 Assay EMAX: 90 min, fraction of the effect produced by the reference agonist CP-55,940; for β-Arrestin 2 Assay pEC50 / EC50: 90 min incubation; for EC50: read-out: β-Arrestin 2 Assay EC50
hCB1Rs [6] = biological target: T1, hCB1Rs; assay: CB1 receptor down-regulation after chronic drug exposure; format: cell-based
hCB1Rs [7] = biological target: T1, hCB1Rs; assay: CB1 receptor desensitization after chronic drug exposure; format: cell-based; conditions: CHO-hCB1-Rx cells; at 1 hr; CP-55,940 10^−7 M or PNR-4-20 10^−5 M
NIH-Swiss mice = assay: In vivo cannabinoid tetrad; parameters: species or system mouse
hCB1 and hCB2Rs = conditions: ref [29]; cited from earlier work
[8] = CHO-β2-hCB1, 95% CI printed in the cell

T1 sequence (P21554 whole entry): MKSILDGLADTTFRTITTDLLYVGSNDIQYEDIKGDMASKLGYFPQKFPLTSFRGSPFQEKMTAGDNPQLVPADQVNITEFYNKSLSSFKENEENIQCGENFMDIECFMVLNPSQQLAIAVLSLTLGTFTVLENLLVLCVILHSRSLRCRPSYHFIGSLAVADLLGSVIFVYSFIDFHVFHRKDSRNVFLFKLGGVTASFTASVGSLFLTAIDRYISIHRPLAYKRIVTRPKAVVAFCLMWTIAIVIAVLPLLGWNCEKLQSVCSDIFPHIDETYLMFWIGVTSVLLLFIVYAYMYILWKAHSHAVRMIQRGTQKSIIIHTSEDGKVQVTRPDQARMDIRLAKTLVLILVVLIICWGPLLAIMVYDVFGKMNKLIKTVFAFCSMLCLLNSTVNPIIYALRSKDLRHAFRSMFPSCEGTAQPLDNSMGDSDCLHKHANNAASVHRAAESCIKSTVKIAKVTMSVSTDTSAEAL

Row | Compound | AC / β-Arrestin 2 (Competitive) Bias Factor (hCB1Rs [1]) | AC / β-Arrestin 2 (Operational) Bias Factor (hCB1Rs [1]) | GTPγS / β-Arrestin 2 (Competitive) Bias Factor (hCB1Rs [1]) | GTPγS / β-Arrestin 2 (Operational) Bias Factor (hCB1Rs [1]) | AC / β-Arrestin 2 (Competitive) ΔΔLog(τ/KA) (hCB1Rs [1]) | AC / β-Arrestin 2 (Operational) ΔΔLog(τ/KA) (hCB1Rs [1]) | GTPγS / β-Arrestin 2 (Competitive) ΔΔLog(τ/KA) (hCB1Rs [1]) | GTPγS / β-Arrestin 2 (Operational) ΔΔLog(τ/KA) (hCB1Rs [1]) | ^3H-CP-55,940 Binding pKi (hCB1Rs [2]; CHO-β2-hCB1 membranes) | ^35S-GTPγS Binding Assay ΔLog(τ/KA) (hCB1Rs [3]) | ^35S-GTPγS Binding Assay pEC50 (hCB1Rs [3]; CHO-β2-hCB1 membranes) | ^35S-GTPγS Binding Assay EMAX (hCB1Rs [3]; CHO-β2-hCB1 membranes) | EC50 (hCB1Rs [3]; CHO-β2-hCB1 membranes) | cAMP Assay Log(τ/KA) (hCB1Rs [4]; [8]) | cAMP Assay pIC50 (hCB1Rs [4]) | cAMP Assay IMAX (hCB1Rs [4]) | IC50 (hCB1Rs [4]) | β-Arrestin 2 Assay (Operational) ΔLog(τ/KA) (hCB1Rs [5]; [8]) | β-Arrestin 2 Assay (Operational) Log(τ/KA) (hCB1Rs [5]; [8]) | β-Arrestin 2 Assay EMAX (hCB1Rs [5]) | other results
1 | CCCCCCC(C)(C)c1ccc([C@@H]2C[C@H](O)CC[C@H]2CCCO)c(O)c1 [CP-55,940] | 1.00 | 1.00 | 1.00 | 1.0 | 0.0 | 0.0 | 0.0 | 0.0 | – | – | – | – | – | – | – | – | – | – | – | – | –
2 | CCCCCn1cc(C(=O)c2cccc3ccccc23)c2ccccc21 [JWH-018, reference compound] | – | 0.21 | – | 2.0 | – | – | – | 0.30 (−0.20 to 0.81) | 9.12±0.06^a | −0.12^a (−0.69 to −0.45) | 9.25±0.23^a | 1.02 ± 0.10 fractional units and 1.02±0.10^a fractional units | 0.749 nM | 8.56^b (8.17 to 8.94) | 8.82±0.15^b | 0.90±0.05^a | 1.73 nM | 0.18^a (−0.15 to 0.51) | 7.27^a (7.20 to 7.34) | 1.16 ± 0.16 fractional units and 1.16±0.16^a fractional units | β-Arrestin 2 Assay pEC50 (hCB1Rs [5]): 7.17±0.08^a; EC50 (hCB1Rs [5]): 78.1 nM; CB1R bias between G protein-dependent and β-arrestin 2 signaling (in words) (hCB1Rs [1]): little CB1R bias
3 | O=C1/C(=C/c2cn(Cc3ccc(F)cc3)c3ccccc23)N2CCC1CC2 [PNR-4-20] | 13.5 | 29.5 | 2.5 | 5.4 | 1.13 (0.7 to 1.56) | 1.47 (0.93 to 2.00) | 0.40 (0.09 to 0.89) | 0.73 (0.09 to 1.36) | 6.83±0.03^b | −1.99^b (−2.54 to −1.43) | 7.29±0.09^b | 1.02 ± 0.10 fractional units | 53.9 nM | 6.45^c (6.02 to 6.88) | 6.97±0.34^a,c | 1.26±0.10^a | 180 nM | −2.72^b (−3.33 to −2.10) | 4.37^b (3.82 to 4.93) | 0.24 ± 0.02 fractional units | ^3H-CP-55,940 Binding pKi (hCB1Rs [2]; CHO-hCB1-Rx membranes): 7.11±0.13; Ki (hCB1Rs [2]; CHO-hCB1-Rx membranes): 85.1 nM; Ki (hCB1Rs [2]; CHO-β2-hCB1 membranes): 159 nM; ^35S-GTPγS Binding Assay pEC50 (hCB1Rs [3]; CHO-hCB1-Rx membranes): 6.89±0.09; ^35S-GTPγS Binding Assay EMAX (hCB1Rs [3]; CHO-β2-hCB1 membranes, listed as PNR-420): 1.02±0.10^a fractional units; EC50 (hCB1Rs [3]; CHO-hCB1-Rx membranes): 130 nM; cAMP Assay ΔLog(τ/KA) (hCB1Rs [4]; CHO-β2-hCB1, normalized to reference CP-55,940, 95% CI printed in the cell): −1.25^c (−1.58 to −0.93); β-Arrestin 2 Assay (Competitive) Log(τ/KA) (hCB1Rs [5]; CHO-β2-hCB1, competitive operational model, 95% CI printed in the cell): 4.84^b (4.53 to 5.16); β-Arrestin 2 Assay EMAX (hCB1Rs [5]; listed as PNR-420): 0.24±0.02^b fractional units; β-Arrestin 2 Assay pEC50 (hCB1Rs [5]): 5.28±0.06^b; effect on β-arrestin 2 recruitment produced by CP-55,940 (co-incubation) (hCB1Rs [5]; CP-55,940 10^−7 M, test ligand 10^−7 to 10^−4 M): decreased; EC50 (hCB1Rs [5]): 5410 nM; effect of chronic exposure on KD of [^3H]-CP-55,940 (hCB1Rs [6]; 10 hr exposure, data not shown): does not alter the KD of [^3H]-CP-55,940; reduction in binding (hCB1R density) (hCB1Rs [6]; CHO-hCB1-Rx cells, 10 hrs exposure, PNR-4-20 10^−5 M): 42.2 ± 1.7%; maximal reduction of hCB1R density (hCB1Rs [6]; CHO-hCB1-Rx cells, PNR-4-20 10^−5 M, 0 to 10 hrs): 76.4 ± 3.6%; maximal reduction of CB1R density (hCB1Rs [6]; CHO-β2-hCB1 cells, at 2 hrs, CP-55,940 10^−7 M or PNR-4-20 10^−5 M): 39.7 ± 4.9%; maximal reduction of G protein activation by CP-55,940 (10^−7 M) (hCB1Rs [7]): 46.0 ± 5.8%; activity in the cannabinoid tetrad (NIH-Swiss mice; NIH-Swiss mice, 10, 30, or 100 mg/kg i.p., assessed 35 min after injection): exhibits activity consistent with that of a CB1R agonist in all four measures of the cannabinoid tetrad; time of peak hypothermic effects after injection (NIH-Swiss mice; mice, radiotelemetry pilot studies, 5-min intervals, data not shown): 35 min; selectivity of binding between hCB1 and hCB2Rs (hCB1 and hCB2Rs): bind relatively non-selectively to hCB1 and hCB2Rs
4 | Cc1c(C(=O)NN2CCCCC2)nn(-c2ccc(Cl)cc2Cl)c1-c1ccc(Cl)cc1 [rimonabant, reference compound] | – | – | – | – | – | – | – | – | – | – | – | – | – | – | – | – | – | – | – | – | reversal of PNR-4-20 tetrad effects by co-administered antagonist (NIH-Swiss mice; rimonabant 10 mg/kg with 100 mg/kg PNR-4-20, i.p., mice): significant reversal of the effects of PNR-4-20 on rectal temperature and catalepsy
